Measured values as given in US20100273752A1, “MEQUITAZINE FOR TREATING OR PREVENTING PATHOLOGIES INVOLVING HISTAMINE H4 RECEPTORS” (PIERRE FABRE MEDICAMENT, priority 2007, published 2010).

Key:
[1] = tested on: bronchoconstriction induced by acetylcholine; experiment: Inhibition of acetylcholine-induced bronchoconstriction in anaesthetized ventilated guinea pigs; type: in vivo, guinea pig
Method: Guinea pigs are anaesthetized and artificially ventilated. The air penetrating the lungs is measured by means of a sensor. Each inspiration is thus quantified. Bronchoconstriction is then induced by intravenous injection of acetylcholine. The effect of acetylcholine is a direct and immediate modification of bronchial tonus. The bronchoconstriction effects of acetylcholine are evaluated in mm at the peak of the effects.

respiratory functions = experiment: Effects on respiratory functions after oral administration in male Wistar rats; type: in vivo, rat
Method: The effects of […] (0.5, 50 and 100 mg/kg) on respiratory functions are analyzed after oral (per os) administration in male Wistar rats (8 rats/dose). […] (100 mg/kg) administered under the same conditions is used as a reference substance. Theophylline (100 mg/kg), administered under the same experimental conditions, is used as a reference substance. Carboxymethyl cellulose (0.5%) in distilled water is used as a control vehicle. At the end of the testing period (i.e., 360 minutes after administration of the dose), the behavior of the animals as well as the diameter of their pupils (miosis/mydriasis) are evaluated. Blood samples are taken from each rat (except those pertaining to the theophylline group) in order to analyze the concentration of the substance in the blood. […]

[2] = tested on: plantar edema induced by histamine; experiment: Plantar edema induced by histamine in the mouse, oral administration; type: in vivo; conditions: for Inhibition of inflammation (%): 3 mg/kg oral
Method: The goal of this experiment was to detect possible anti-inflammatory activity of […], […] and […] with respect to plantar edema induced by histamine in the mouse. The principle of the test is inspired by the publication of Kreutner et al. (2000). All groups were composed of 10 animals. The products were administered by oral route (25 ml/kg) in pretreatment, at various times: 120, 90, 60 and 30 minutes before the inflammation-producing agent. Sixty minutes later, an injection (10 μl) in the paw was given under isoflurane anesthesia. The right paw received 13 μg of histamine dihydrochloride and the left paw physiological saline solution (histamine vehicle). Thirty minutes after the injections, the animals were euthanized by cervical dislocation. The paws were sampled and weighed. The edemas were quantified by the difference between the weights of the paws (weight of right paw-weight of left paw).

[3] = tested on: histamine-induced bronchoconstriction; experiment: Histamine-induced bronchoconstriction, Konzett model, intravenous administration; type: in vivo, guinea pig
Method: The goal of these experiments is to evaluate the activity of the three compounds […] and […] with respect to histamine-induced bronchoconstriction in the Konzett (1940) guinea pig model. Previously we saw that the three compounds exerted antihistamine activity with respect to H4 receptor in vitro, while on the other hand in vivo only […] and […] appeared anti-inflammatory when the inflammation is generated by histamine. It seems that […] loses its activity when it is administered by oral route. With an aim of analyzing the activity by intravenous route of the three products, the following test was conducted. The animals are ventilated, by means of a constant pressure respiratory pump, by a volume of air in excess. […] The variations observed represent changes in bronchial tonus. Histamine-induced bronchoconstriction causes an increase in the excess volume measured by the sensor. The various compounds are administered by way of the jugular vein, which is catheterized beforehand. Histamine stimulation is then carried out by intravenous route at a dose of 7 μg/kg.

H4 receptor = H4 receptor (Homo sapiens, UniProt Q9H3N8); experiment: G protein activation test ([35S] GTP binding); conditions: for Effect on G protein activation induced by histamine: 0.1 μM histamine, FIG. 1a; for Functional character at H4 receptor (basal activity in the absence of agonist): FIG. 1b
histamine H4 receptor [4] = biological target: T1, histamine H4 receptor (Homo sapiens, UniProt Q9H3N8); experiment: Affinity constants by competition with tritiated histamine on membrane preparations from CHO cells expressing H4 receptor; type: binding; parameters: expressed in transfected cells; host or cells: CHO; conditions: CHO cell membranes
Description: In a second series of experiments, the affinity constants of these three compounds are precisely determined by competition with the tritiated histamine radioligand on membrane preparations from CHO cells expressing in a stable manner histamine H4 receptor.

histamine H4 receptor [5] = biological target: T1, histamine H4 receptor; experiment: Receptor binding in vitro, HEK-293 cells stably transfected with human H4 receptor, 10 nM tritiated histamine; parameters: expressed in transfected cells; host or cells: HEK-293; conditions: for inhibition at 10 µM: compounds tested at 10 μM, 10 nM tritiated histamine, HEK-293 cells
Method: The goal of this study is to determine an affinity constant of the compound with respect to human histamine H4 receptor in vitro. The model chosen is HEK-293 cells transfected in a stable fashion by cDNA coding for human H4 receptor (Liu et al., 2001). First is determined the affinity of cells expressing each type of receptor for a ligand for which it was also established that it bound 100% to the receptor. The optimal ligand for the recombinant receptor is 10 nM tritiated histamine. Receptor binding is defined as follows: the difference between total binding and the nonspecific binding determined in the presence of excess cold ligand. The results are expressed as a percentage of optimal binding obtained with the ligand model (100%).

Chain of H4 receptor (Q9H3N8 whole entry): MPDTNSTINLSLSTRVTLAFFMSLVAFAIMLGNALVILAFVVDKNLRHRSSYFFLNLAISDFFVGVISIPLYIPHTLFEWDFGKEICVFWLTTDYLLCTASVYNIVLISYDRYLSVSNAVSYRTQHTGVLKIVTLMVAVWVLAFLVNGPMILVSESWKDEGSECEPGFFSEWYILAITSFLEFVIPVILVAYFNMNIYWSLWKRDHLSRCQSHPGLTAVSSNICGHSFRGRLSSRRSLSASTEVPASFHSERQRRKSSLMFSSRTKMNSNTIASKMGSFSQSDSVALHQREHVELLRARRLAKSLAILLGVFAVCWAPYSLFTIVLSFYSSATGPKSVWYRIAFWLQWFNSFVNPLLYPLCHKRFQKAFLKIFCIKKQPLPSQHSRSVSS
T1 sequence (Q9H3N8 whole entry): as above

SMILES: CN1[C@@H]2CC[C@H]1C[C@@H](OC(=O)C(CO)c1ccccc1)C2 (stereo partly shown) [Atropine, reference compound]
- Percentage of inhibition (%) ([1]; dose 5 μg/kg): −76 ± 8%

SMILES: Cn1c(=O)c2[nH]cnc2n(C)c1=O [Theophylline, reference compound]
- Change in peak flow of expiration (respiratory functions; 100 mg/kg p.o., at 60 minutes): +121%
- Change in peak flow of inspiration (respiratory functions; 100 mg/kg p.o., at 60 minutes): +116%
- Change in relaxation time (respiratory functions; 100 mg/kg p.o., at 60 minutes): −61%
- Change in respiratory rate (respiratory functions; 100 mg/kg p.o., at 60 minutes): +223%
- Change in time of expiration (respiratory functions; 100 mg/kg p.o., at 60 minutes): −63%
- Change in time of inspiration (respiratory functions; 100 mg/kg p.o., at 60 minutes): −60%
- Change in respiratory volume (respiratory functions; 100 mg/kg p.o., at 120 minutes): −17%
- Change in 'improves respiratory pause' parameter (respiratory functions; 100 mg/kg p.o., at 300 minutes): −37%
- Change in respiratory pause (respiratory functions; 100 mg/kg p.o., at 300 minutes): −20%
- Behavior and signs of morbid state (respiratory functions; 360 minutes post-administration, V0114 0.5, 50 and 100 mg/kg, L0013 and theophylline 100 mg/kg): no change of behavior or signs of morbid state

SMILES: c1ccc2c(c1)Sc1ccccc1N2C[C@@H]1CN2CCC1CC2 [V0114, 10-[(3S)-1-azabicyclo[2.2.2]oct-3-ylmethyl]-10H-phenothiazine]
- Inhibition of inflammation (%) ([2]; pretreatment −30 min): −63%
- Inhibition of inflammation (%) ([2]; pretreatment −60 min): −58%
- Inhibition of inflammation (%) ([2]; pretreatment −90 min): −72%
- Inhibition of inflammation (%) ([2]; pretreatment −120 min): −71%
- Anti-inflammatory activity, range over pretreatment times ([2]; oral, 120, 90, 60 and 30 minutes beforehand): −58% to −72%
- Inhibition at 5 min (%) ([3]; 12.5 mg/kg i.v.): −15 ± 3%
- Inhibition at 30 min (%) ([3]; 12.5 mg/kg i.v.): −35 + 6%
- Inhibition at 5 min (%) ([3]; 25 mg/kg i.v.): −29 ± 3%
- Inhibition at 30 min (%) ([3]; 25 mg/kg i.v.): −71 + 5%
- Inhibition at 5 min (%) ([3]; 37.5 mg/kg i.v.): −51 ± 8%
- Inhibition at 30 min (%) ([3]; 37.5 mg/kg i.v.): −91 + 2%
- Inhibition at 5 min (%) ([3]; 50 mg/kg i.v.): −48 ± 6%
- Inhibition at 30 min (%) ([3]; 50 mg/kg i.v.): −97 + 2%
- Percentage of inhibition (%) ([1]; dose 25 μg/kg): −7 ± 3%
- Percentage of inhibition (%) ([1]; dose 50 μg/kg): −6 ± 1%
- Percentage of inhibition (%) ([1]; dose 100 μg/kg): −14 ± 4%
- Effect on the nine respiratory parameters evaluated (respiratory functions; 0.5, 50 and 100 mg/kg p.o., 360 minute test period): does not have a significant effect
- Pupil diameter (respiratory functions; male, Wistar, rat, in vivo, 360 min): an increase of 50 mg/kg related to the administration was noted
- Effect on G protein activation induced by histamine (H4 receptor): antagonize the activating action
- Functional character at H4 receptor (basal activity in the absence of agonist) (H4 receptor): inverse agonists
- Ki (histamine H4 receptor [4]): 2490 ± 370 nM
- Binding to human histamine H4 receptors (in words) (histamine H4 receptor [5]): strongly bind
- inhibition at 10 µM (histamine H4 receptor [5]): 33%

SMILES: c1ccc2c(c1)Sc1ccccc1N2C[C@H]1CN2CCC1CC2 [V0162, 10-[(3R)-1-azabicyclo[2.2.2]oct-3-ylmethyl]-10H-phenothiazine]
- Inhibition of inflammation (%) ([2]; pretreatment −30 min): +2%
- Inhibition of inflammation (%) ([2]; pretreatment −60 min): +25%
- Inhibition of inflammation (%) ([2]; pretreatment −90 min): −5%
- Inhibition of inflammation (%) ([2]; pretreatment −120 min): +12%
- Effect on histamine edema (in words) ([2]; oral route): does not reduce this edema
- Inhibition at 5 min (%) ([3]; 25 mg/kg i.v.): −17 + 3%
- Inhibition at 30 min (%) ([3]; 25 mg/kg i.v.): −9 ± 8%
- Inhibition at 5 min (%) ([3]; 37.5 mg/kg i.v.): −23 + 4%
- Inhibition at 30 min (%) ([3]; 37.5 mg/kg i.v.): −9 ± 9%
- Inhibition at 5 min (%) ([3]; 50 mg/kg i.v.): −31 + 12%
- Inhibition at 30 min (%) ([3]; 50 mg/kg i.v.): −4 ± 10%
- Percentage of inhibition (%) ([1]; dose 25 μg/kg): −9 ± 3%
- Percentage of inhibition (%) ([1]; dose 50 μg/kg): −29 ± 4%
- Percentage of inhibition (%) ([1]; dose 100 μg/kg): −37 ± 5%
- Effect on G protein activation induced by histamine (H4 receptor): antagonize the activating action
- Functional character at H4 receptor (basal activity in the absence of agonist) (H4 receptor): inverse agonists
- Ki (histamine H4 receptor [4]): 1180 ± 160 nM
- Binding to human histamine H4 receptors (in words) (histamine H4 receptor [5]): strongly bind
- inhibition at 10 µM (histamine H4 receptor [5]): 52%

SMILES: S=C(NC1CCCCC1)N1CCC(c2cnc[nH]2)CC1 [thioperamide, reference compound]
- Effect on G protein activation induced by histamine (H4 receptor): antagonize the activating action
- Functional character at H4 receptor (basal activity in the absence of agonist) (H4 receptor): inverse agonists
